Experimental data from publication PMC12372887, “Mechanism and cellular actions of the potent AMPK inhibitor BAY-3827” (Science Advances, 2025).

How the values were obtained:
Assay in all cases: Kinase panel (140 human kinases)
Format in all cases: biochemical
IKKe = IKKe (Homo sapiens, UniProt Q14164)
Method in brief: (§1)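 Duplicate radiometric filter-binding measurements with [γ-^33P]ATP gave percent residual activity, mean and SD. Tested concentrations: 0.1 μM and, for BAY-3827, 1 μM. ATP set per kinase to 5, 20 or 50 μM, not above Km.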

PKCγ = PKCγ (Homo sapiens, UniProt P05129)
Method in brief: as §1

RSK2 = RSK2 (Homo sapiens, UniProt P51812)
RSK2, sequence (P51812 whole entry): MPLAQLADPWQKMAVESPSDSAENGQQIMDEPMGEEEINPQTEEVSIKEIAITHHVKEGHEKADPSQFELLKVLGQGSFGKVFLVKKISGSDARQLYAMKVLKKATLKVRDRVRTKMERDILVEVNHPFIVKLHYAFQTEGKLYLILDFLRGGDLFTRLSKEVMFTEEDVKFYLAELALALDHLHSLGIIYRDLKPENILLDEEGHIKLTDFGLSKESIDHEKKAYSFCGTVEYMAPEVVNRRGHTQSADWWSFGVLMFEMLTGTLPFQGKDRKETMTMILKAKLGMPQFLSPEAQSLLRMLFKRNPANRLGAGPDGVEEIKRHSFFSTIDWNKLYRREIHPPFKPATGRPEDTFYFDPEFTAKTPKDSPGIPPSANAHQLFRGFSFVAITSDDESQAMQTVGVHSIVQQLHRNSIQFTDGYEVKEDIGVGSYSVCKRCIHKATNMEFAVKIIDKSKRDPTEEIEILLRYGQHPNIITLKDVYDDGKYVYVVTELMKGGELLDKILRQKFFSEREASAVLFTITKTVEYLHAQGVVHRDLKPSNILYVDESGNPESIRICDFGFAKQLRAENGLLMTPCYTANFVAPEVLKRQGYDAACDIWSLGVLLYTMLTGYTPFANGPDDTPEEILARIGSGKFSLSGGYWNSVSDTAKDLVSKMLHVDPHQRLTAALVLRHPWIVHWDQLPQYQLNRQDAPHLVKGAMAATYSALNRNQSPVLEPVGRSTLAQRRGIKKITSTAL
Method in brief: as §1

MELK = MELK (Homo sapiens, UniProt Q14680)
MELK, sequence (Q14680 whole entry): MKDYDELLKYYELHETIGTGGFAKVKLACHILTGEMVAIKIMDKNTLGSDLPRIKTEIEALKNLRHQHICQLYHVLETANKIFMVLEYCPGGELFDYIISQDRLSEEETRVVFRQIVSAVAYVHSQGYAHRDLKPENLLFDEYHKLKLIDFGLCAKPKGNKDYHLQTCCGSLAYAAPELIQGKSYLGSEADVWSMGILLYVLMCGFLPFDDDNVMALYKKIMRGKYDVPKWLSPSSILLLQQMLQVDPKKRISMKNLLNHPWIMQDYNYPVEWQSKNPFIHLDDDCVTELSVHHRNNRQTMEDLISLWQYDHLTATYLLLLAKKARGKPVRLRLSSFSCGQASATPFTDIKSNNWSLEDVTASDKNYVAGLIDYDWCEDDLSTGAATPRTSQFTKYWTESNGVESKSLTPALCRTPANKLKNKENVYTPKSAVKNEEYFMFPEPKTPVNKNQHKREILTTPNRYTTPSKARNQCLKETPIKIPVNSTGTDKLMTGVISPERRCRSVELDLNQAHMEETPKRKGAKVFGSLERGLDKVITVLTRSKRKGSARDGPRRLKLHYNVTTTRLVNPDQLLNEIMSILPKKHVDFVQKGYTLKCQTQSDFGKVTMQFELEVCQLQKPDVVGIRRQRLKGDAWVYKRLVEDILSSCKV
Method in brief: as §1

MINK1 = MINK1 (Homo sapiens, UniProt Q8N4C8)
MINK1, sequence (Q8N4C8 whole entry): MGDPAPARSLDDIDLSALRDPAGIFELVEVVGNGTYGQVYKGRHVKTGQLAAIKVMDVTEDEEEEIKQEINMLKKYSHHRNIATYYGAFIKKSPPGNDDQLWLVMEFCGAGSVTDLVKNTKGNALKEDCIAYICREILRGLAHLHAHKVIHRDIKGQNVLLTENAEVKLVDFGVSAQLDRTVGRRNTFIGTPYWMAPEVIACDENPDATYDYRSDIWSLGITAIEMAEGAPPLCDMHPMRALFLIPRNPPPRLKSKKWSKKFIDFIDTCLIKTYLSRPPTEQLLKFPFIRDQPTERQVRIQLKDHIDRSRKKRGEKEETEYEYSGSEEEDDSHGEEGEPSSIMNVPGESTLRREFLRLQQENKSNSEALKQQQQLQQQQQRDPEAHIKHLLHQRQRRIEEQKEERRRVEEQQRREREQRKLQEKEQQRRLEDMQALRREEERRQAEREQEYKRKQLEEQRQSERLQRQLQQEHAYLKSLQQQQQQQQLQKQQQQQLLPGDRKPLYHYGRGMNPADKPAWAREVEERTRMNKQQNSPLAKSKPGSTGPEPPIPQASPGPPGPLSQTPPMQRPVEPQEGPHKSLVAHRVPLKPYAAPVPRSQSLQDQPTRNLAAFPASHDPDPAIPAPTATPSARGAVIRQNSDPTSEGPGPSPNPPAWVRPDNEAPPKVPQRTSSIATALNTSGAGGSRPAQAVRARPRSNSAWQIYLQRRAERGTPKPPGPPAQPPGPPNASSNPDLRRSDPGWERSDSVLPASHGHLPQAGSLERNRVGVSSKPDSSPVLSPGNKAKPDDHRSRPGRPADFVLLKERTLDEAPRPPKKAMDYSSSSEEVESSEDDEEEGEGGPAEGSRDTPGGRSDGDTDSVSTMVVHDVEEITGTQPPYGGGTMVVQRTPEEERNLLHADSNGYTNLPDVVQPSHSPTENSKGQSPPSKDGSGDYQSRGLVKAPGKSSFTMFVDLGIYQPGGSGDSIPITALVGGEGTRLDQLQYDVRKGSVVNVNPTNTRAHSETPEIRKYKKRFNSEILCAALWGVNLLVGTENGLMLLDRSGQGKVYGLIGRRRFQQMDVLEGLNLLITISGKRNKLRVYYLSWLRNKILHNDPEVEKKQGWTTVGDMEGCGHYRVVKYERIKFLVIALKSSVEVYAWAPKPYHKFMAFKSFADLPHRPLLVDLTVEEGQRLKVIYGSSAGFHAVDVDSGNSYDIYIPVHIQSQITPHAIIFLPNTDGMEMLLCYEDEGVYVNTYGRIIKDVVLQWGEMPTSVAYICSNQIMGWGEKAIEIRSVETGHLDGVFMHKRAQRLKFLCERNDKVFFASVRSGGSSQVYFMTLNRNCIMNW
Method in brief: as §1

CHK1 = CHK1 (Homo sapiens, UniProt O14757)
CHK1, sequence (O14757 whole entry): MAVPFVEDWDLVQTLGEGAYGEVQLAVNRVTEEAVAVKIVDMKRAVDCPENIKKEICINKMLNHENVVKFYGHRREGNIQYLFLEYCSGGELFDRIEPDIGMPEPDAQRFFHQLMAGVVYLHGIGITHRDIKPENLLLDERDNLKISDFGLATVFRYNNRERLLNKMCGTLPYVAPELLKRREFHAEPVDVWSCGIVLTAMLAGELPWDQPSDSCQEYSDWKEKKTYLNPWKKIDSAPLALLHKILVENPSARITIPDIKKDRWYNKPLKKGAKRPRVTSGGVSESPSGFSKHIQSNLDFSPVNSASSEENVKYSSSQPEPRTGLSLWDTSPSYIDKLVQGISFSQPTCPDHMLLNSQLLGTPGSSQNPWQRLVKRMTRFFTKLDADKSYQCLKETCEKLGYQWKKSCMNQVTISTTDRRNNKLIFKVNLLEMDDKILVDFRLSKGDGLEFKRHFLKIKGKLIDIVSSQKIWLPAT
Method in brief: as §1

PKBa = PKBa (Homo sapiens, UniProt P31749)
Method in brief: as §1

TrkA = TrkA (Homo sapiens, UniProt P04629)
Method in brief: as §1

BTK = BTK (Homo sapiens, UniProt Q06187)
Method in brief: as §1

PAK2 = PAK2 (Homo sapiens, UniProt Q13177)
Method in brief: as §1

EPH-B1 = EPH-B1 (Homo sapiens, UniProt P54762)
Method in brief: as §1

NEK2a = NEK2a (Homo sapiens, UniProt P51955)
Method in brief: as §1

MAP4K3 = MAP4K3 (Homo sapiens, UniProt Q8IVH8)
Method in brief: as §1

ASK1 = ASK1 (Homo sapiens, UniProt Q99683)
Method in brief: as §1

ERK1 = ERK1 (Homo sapiens, UniProt P27361)
ERK1, sequence (P27361 whole entry): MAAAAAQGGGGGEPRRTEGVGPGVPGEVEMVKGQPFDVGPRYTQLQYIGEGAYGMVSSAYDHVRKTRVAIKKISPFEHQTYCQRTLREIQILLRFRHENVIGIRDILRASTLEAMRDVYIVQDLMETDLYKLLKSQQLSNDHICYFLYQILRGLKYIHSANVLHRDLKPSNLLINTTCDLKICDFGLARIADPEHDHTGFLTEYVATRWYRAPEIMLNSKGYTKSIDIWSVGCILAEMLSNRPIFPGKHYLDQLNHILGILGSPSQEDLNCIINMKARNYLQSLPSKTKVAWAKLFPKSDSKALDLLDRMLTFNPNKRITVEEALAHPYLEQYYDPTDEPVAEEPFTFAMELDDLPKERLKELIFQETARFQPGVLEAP
Method in brief: as §1

PIM2 = PIM2 (Homo sapiens, UniProt Q9P1W9)
PIM2, sequence (Q9P1W9 whole entry): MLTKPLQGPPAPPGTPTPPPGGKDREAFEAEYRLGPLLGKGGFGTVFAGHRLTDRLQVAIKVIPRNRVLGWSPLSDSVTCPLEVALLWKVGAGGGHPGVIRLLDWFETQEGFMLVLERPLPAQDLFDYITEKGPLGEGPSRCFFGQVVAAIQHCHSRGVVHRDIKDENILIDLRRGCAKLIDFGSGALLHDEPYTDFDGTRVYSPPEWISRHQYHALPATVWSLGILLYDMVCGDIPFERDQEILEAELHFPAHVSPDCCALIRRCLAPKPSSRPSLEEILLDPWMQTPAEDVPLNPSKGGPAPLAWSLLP
Method in brief: as §1

PKCa = PKCa (Homo sapiens, UniProt P17252)
Method in brief: as §1

VEG-FR = conditions: 0.1 μM
Method in brief: as §1

TTBK2 = TTBK2 (Homo sapiens, UniProt Q6IQ55)
Method in brief: as §1

HER4 = HER4 (Homo sapiens, UniProt Q15303)
Method in brief: as §1

DYRK2 = DYRK2 (Homo sapiens, UniProt Q92630)
Method in brief: as §1

EIF2AK3 = EIF2AK3 (Homo sapiens, UniProt Q9NZJ5)
Method in brief: as §1

TLK1 = TLK1 (Homo sapiens, UniProt Q9UKI8)
Method in brief: as §1

CDK2-Cyclin A = CDK2-Cyclin A (Homo sapiens, UniProt P24941)
Method in brief: as §1

MNK2 = MNK2 (Homo sapiens, UniProt Q9HBH9)
MNK2, sequence (Q9HBH9 whole entry): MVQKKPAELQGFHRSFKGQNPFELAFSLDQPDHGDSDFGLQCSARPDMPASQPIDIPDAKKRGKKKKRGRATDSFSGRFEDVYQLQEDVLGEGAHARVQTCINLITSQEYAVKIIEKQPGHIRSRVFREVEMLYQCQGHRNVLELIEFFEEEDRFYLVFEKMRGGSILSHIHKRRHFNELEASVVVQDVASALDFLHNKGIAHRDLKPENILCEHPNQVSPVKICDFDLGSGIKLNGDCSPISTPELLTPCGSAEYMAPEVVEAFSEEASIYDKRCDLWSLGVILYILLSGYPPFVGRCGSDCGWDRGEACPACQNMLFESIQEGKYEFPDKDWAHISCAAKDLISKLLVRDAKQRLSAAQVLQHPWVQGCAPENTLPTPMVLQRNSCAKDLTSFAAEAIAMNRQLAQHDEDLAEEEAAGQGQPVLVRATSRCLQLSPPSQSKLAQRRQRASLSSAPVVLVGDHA
Method in brief: as §1

[1] = 1 μM, cross-referenced with screen data of ref 37, read-out: activity remaining after treatment

Compound | remaining activity at 0.1 µM (IKKe) [%] | remaining activity at 0.1 µM (PKCγ) [%] | remaining activity at 0.1 µM (RSK2) [%] | remaining activity at 0.1 µM (MELK) [%] | remaining activity at 0.1 µM (MINK1) [%] | remaining activity at 0.1 µM (CHK1) [%] | remaining activity at 0.1 µM (PKBa) [%] | remaining activity at 0.1 µM (TrkA) [%] | remaining activity at 0.1 µM (BTK) [%] | remaining activity at 0.1 µM (PAK2) [%] | remaining activity at 0.1 µM (EPH-B1) [%] | remaining activity at 0.1 µM (NEK2a) [%] | remaining activity at 0.1 µM (MAP4K3) [%] | remaining activity at 0.1 µM (ASK1) [%] | remaining activity at 0.1 µM (ERK1) [%] | remaining activity at 0.1 µM (PIM2) [%] | remaining activity at 0.1 µM (PKCa) [%] | Kinase activity remaining (%) (VEG-FR) | remaining activity at 0.1 µM (TTBK2) [%] | remaining activity at 0.1 µM (HER4) [%] | other results
CCc1ccccc1C(=O)Nc1n[nH]c2c(C)c(F)c(C3C(C#N)=C(C)N(C)C(C)=C3C#N)cc12 [BAY-3827, N-[5-(3,5-dicyano-1,2,6-trimethyl-4H-pyridin-4-yl)-6-fluoro-7-methyl-1H-indazol-3-yl]-2-ethylbenzamide] | 85 | 94 | 90 | 81 | ≤ 50 | 66 | 95 | 87 | 85 | 88 | 91 | 122 | 82 | 95 | 105 | 112 | 90 | 89 | 93 | 135 | remaining activity at 1 µM (RSK2; [1]): ≤ 50%; remaining activity at 1 µM (MELK; [1]): ≤ 50%; inhibition at 0.1 µM (MINK1): ~60%; remaining activity at 1 µM (PIM2; [1]): ≥ 99%; remaining activity at 0.1 µM (DYRK2): 89%; remaining activity at 0.1 µM (EIF2AK3): 98%; remaining activity at 0.1 µM (TLK1): 118%; remaining activity at 0.1 µM (CDK2-Cyclin A): 99%; remaining activity at 1 µM (CDK2-Cyclin A; 1 μM, CDK2, cross-referenced with screen data of ref 37, read-out: activity remaining after treatment): ≥ 99%; remaining activity at 0.1 µM (MNK2): 99%
CC1=C(C#N)C(c2ccc3c(c2)c(NC(=O)c2ccccc2C)nn3C)C(C#N)=C(C)N1 [BAY-974, N-[5-(3,5-dicyano-2,6-dimethyl-1,4-dihydropyridin-4-yl)-1-methylindazol-3-yl]-2-methylbenzamide] | 101 | 115 | 117 | 90 | 79 | 78 | 95 | 97 | 94 | 88 | 107 | 121 | 73 | 83 | 103 | 113 | 110 | 95 | 91 | 93 | remaining activity at 0.1 µM (DYRK2): 79%; remaining activity at 0.1 µM (EIF2AK3): 113%; remaining activity at 0.1 µM (TLK1): 100%; remaining activity at 0.1 µM (CDK2-Cyclin A): 96%; remaining activity at 0.1 µM (MNK2): 98%
